Test results reported in patent US10921325B2, “Composition for anticancer adjuvant comprising RIP3 expression promoter as active ingredient, method for screening anticancer adjuvant which promotes RIP3 expression and enhances sensitivity of anticancer agent, and method for monitoring sensitivity of anticancer agent” (AJOU UNIVERSITY INDUSTRY-ACADEMIC COOPERATION FOUNDATION, priority 2015, dated 2021).

Experiments:
[1] = test system: MDA-MB231 breast cancer cell line tumors; assay: MDA-MB231 mouse xenograft model, combined treatment with 5-AD and Doxorubicin; assay type: in vivo, BALB/c nude mice
Description: In order to verify the sensitization effect induced by RIP3 expression in experimental animal models, the MDA-MB231 breast cancer cell line that expresses no RIP3 was injected into BALB/c nude mice to form tumors. Next, the mice were injected with 5-AD for 1 week, and then injected with Doxorubicin for 33 days, and a change in the volume of the tumor tissue was measured. […] In addition, the tumor tissue was isolated after the last drug treatment, and the mass thereof was measured. […] The tumor tissue subjected to combined treatment with 5-AD and Doxorubicin was prepared into a paraffin block which was then visualized by H&E staining, p-H2AX antibody staining, and TUNEL staining.

[2] = test system: HeLa, MDA-MB231 and DLD-1 cancer cell lines; assay: Sensitization to cancer cell death by combined treatment with demethylating agent and anticancer drug; assay type: cell-based
Description: (§1) Cell viability was determined using tetrazolium dye colorimetric test (MTT assay) at 570 nm.
The same number of HeLa, MDA-MB231 and DLD-1 cancer cell lines not treated with a drug were also grown, and then treated with the same concentration of an anticancer drug. The effect of the demethylating agent on sensitization to cell death was analyzed.

[3] = test system: RIP3 expression in MDA-MB231 tumor tissue; assay: RIP3 expression in isolated xenograft tumor tissue (RT-PCR, IHC); assay type: in vivo, BALB/c nude mice; settings: group treated with 5-AD
Description: Immunohistochemistry was performed using the UltraVision LP Detection System TL-060-HD (Thermo Scientific, Bioanalytica) according to the manufactures instructions. Thin paraffin sections (4.5 μm) were deparaffinized in xylene and rehydrated in a graded series of ethanol-aqueous solutions. Antigen retrieval was done by heating the slides for 15 min in a microwave oven in 10 mM citrate buffer (pH 6.0). Endogenous peroxidase activity was blocked by incubation in 3% hydrogen peroxide in TBS for 10 min, and then the sections were incubated overnight at 4° C. in 1:300 dilutions of anti-RIP3 antibody. Chromogen was developed for 5 min with 3,3′-diaminobenzidine (TL-015-HD, Them© Scientific, Bioanalytica, Greece) solution and counterstained with Meyer's hematoxylin. Immunohistochemical staining was evaluated based on the proportion of stained cells and immunostaining intensity. H-score used in the present invention was obtained by multiplying the proportion of stained cells (i) and staining intensity graded 0 (negative), 1 (weak), 2 (moderate), or 3 (strong). H-score ranged from 0 to 300. Staining was carried out for tumor and normal tissues for each sample for the same time. Staining was interpreted by an experienced pathologist blinded to the clinical data.
In addition, RNA was extracted from the isolated tumor tissue and subjected to RT-PCR. […]

[4] = test system: non-target cell line and shRIP3 cell line; assay: Cell viability (MTT) of non-target and shRIP3 cell lines after combined treatment with demethylating agent and anticancer drug; assay type: cell-based, human
Description: (§2) A MISSION short-hairpin RNA (shRNA) plasmid that targets the coding region or 3′ UTR of hRIP3 mRNA (NM_006871) or a non-target control sequence (NM-027088) were obtained from Sigma-Aldrich. A Lentivirus plasmid was transfected into 293T cells (System Biosciences, LV900A-1) using Lipofectamine 2000 (Invitrogen, 11668019). Pseudoviral particles were collected at 2 days after transfection of the Lentivirus plasmid and infected into various cancer cells in the presence of polybrene (10 μg/mL).
as §1
(§3) Since a demethylating agent (5-AD or 5-AZA) is not a drug specific for a particular protein, it may cause expression of various proteins in addition to RIP3. […] After whether RIP3 was expressed was determined, a cell viability assay was performed.

[5] = test system: RIP3 expression in RIP3-silenced cancer cell lines; assay: RIP3 expression in RIP3-silenced cancer cell lines treated with demethylating agent (Western blotting)
Description: Cells were lysed in M2 buffer. Equal amounts of cell extracts were analyzed by SDS-PAGE and immunoblotting, and visualized by enhanced chemiluminescence (ECL, Amersham). A variety of RIP3-silenced cancer cell lines (including liver cancer, cervical cancer, prostate cancer, brain cancer, ovarian cancer, skin cancer, lung cancer, breast cancer, blood cancer, colorectal cancer, and bladder cancer) were grown to a confluence of 10-20%, and then treated twice with 5-AD for 4 days, after which RIP3 expression patterns in the cell lines were analyzed by a Western blotting technique.

[6] = test system: RIP3 expression in non-target and shRIP3 cancer cell lines; assay: RIP3 expression in non-target and shRIP3 cell lines treated with 5-AD (Western blotting); assay type: cell-based, human; settings: treated twice with 5-AD for 4 days
Description: as §2, with “μg/mL). At 2 days after infection, infected cells were selected with puromycin, and RIP3 knockdown was confirmed by immunoblotting. Cells without expression endogenous RIP3 were afterwards treated with 5-AD for 4 days and analyzed by immunoblotting.” for “μg/mL).”
Cells were lysed in M2 buffer.
as §3

[7] = test system: RIP3 expression in HeLa cervical cell line and DLD-1 colorectal cancer cell line; assay: RIP3 expression at mRNA or protein level in HeLa and DLD-1 cells treated with demethylating agent; assay type: cell-based; settings: HeLa and DLD-1 cell lines which expressed no RIP3
HT-29 cells = assay: Viability (MTT) of RIP3-silenced HT-29 cells treated with anticancer drug; assay type: cell-based, human; settings: 48 hours
Description: In order to identify the role of RIP3 in anticancer drug sensitivity, the HT-29 cell line which is a representative cancer cell line expressing RIP3 was used. To identity the function of RIP3, RIP3 expression was inhibited using the shRNA system and analyzed by a Western blotting technique.
In the present invention, in order to examine whether the RIP3 gene is associated with anticancer drug sensitivity, HT-29 cells transfected with RIP3 shRNA were treated with varying concentrations of doxorubicin and etoposide, and then the cell viability of the cancer cells was measured. Particularly, HT-29 cells transfected with RIP3 shRNA were treated with 2.5 μM and 5 μM of doxorubicin and 50 μM and 100 μM of etoposide, and then incubated for 48 hours. After the medium was replaced with a fresh medium containing 0.1 mg of MTT (3-([4,5-dimethylthiazol-2-yl]-2,5-diphenyltetrazolium bromide), the cells were further incubated for 2 hours. Colorimetric analysis was performed on a precipitate obtained by reducing a tetrazolium salt, in which viable cells is dissolved, into a purple formazan crystal. Next, the medium was removed, and the produced formazan crystal was dissolved in 500 μl of DMSO, and the absorbance was measured using an ELISA reader at 570 nm. Cell viability was expressed as a percentage relative to the control taken as 100% viability.

T47D cells = assay: Viability (MTT) of RIP3-silenced T47D cells treated with anticancer drug; assay type: cell-based, human; settings: 48 hours; for anticancer drug resistance (MTT assay): T47D RIP3-knocked down test group, versus control group; for cell death (MTT assay): T47D control group
Description: The T47D cell line which is a breast cancer cell line expressing RIP3 was used to identify the role of RIP3 in various kinds of cancel. First, the shRIP3 T47D cell line was prepared in the same manner as described in Example 7.
In order to examine whether RIP3 increases anticancer drug sensitivity in T47D breast cancer cells, an MTT assay was performed. A control group and a RIP3-knocked down test group were incubated with doxorubicin, etoposide and taxol at the concentrations shown in FIG. 15 (right) for 48 hours.

[8] = anticancer drug in combined treatment with the demethylating agent (5-AD or 5-AZA)
[9] = non-target cell line, anticancer drug combined with demethylating agent (5-AD)
[10] = HT-29 control group, doxorubicin 2.5 and 5 μM, etoposide 50 and 100 μM
[11] = HT-29 with RIP3 knocked down with shRNA, versus control group

| SMILES | sensitization to cell death [2, 8] | sensitization to cell death [4, 9] | anticancer drug resistance (MTT assay) (T47D cells) | cell death (MTT assay) (T47D cells) | also measured |
| --- | --- | --- | --- | --- | --- |
| Nc1ncn([C@H]2C[C@H](O)[C@@H](CO)O2)c(=O)n1 [5-AD, 5-aza-2′-deoxycytidine] | – | – | – | – | volume of the tumor tissue ([1]; 5-AD for 1 week then Doxorubicin for 33 days, combined treatment compared to Doxorubicin alone): significantly reduced; H&E staining, p-H2AX antibody staining and TUNEL staining of tumor tissue ([1]; combined treatment with 5-AD and Doxorubicin): the death of the cancer cells occurred by the combined treatment; mass of tumor tissue ([1]; tumor isolated after the last drug treatment, combined treatment with Doxorubicin and 5-AD): significantly reduced; sensitization to cell death ([2]; cervical, breast, colorectal and bladder cancer cell lines treated with the anticancer drug after RIP3 induction by 5-AD): sensitized to cell death; RIP3 expression (RT-PCR) ([3]; RNA from isolated tumor tissue): increased; RIP3 expression (immunohistochemistry) ([3]; paraffin block of isolated tumor tissue): RIP3 expression was increased; sensitization to cell death ([4]; shRIP3 cell line that expresses no RIP3, 5-AD combined with anticancer drug): the sensitization effect was inhibited; RIP3 expression ([5]; cancer cell lines that expressed no RIP3, 5-AD 2 uM, treated twice for 4 days, Western blotting): RIP3 expression was induced; RIP3 expression ([6]; non-target cell line): RIP3 expression was induced; RIP3 expression ([6]; shRIP3 cell line, Western blotting): RIP3 was not expressed |
| Nc1ncn([C@@H]2O[C@H](CO)[C@@H](O)[C@H]2O)c(=O)n1 [5-AZA, 5-azacytidine] | – | – | – | – | RIP3 expression ([5]; cancer cell lines of Example 3, treated twice for 4 days): induced RIP3 expression; RIP3 expression [7]: RIP3 expression was induced |
| O=c1[nH]cc(F)c(=O)[nH]1 [5-FU] | showed the effect of sensitizing the cancer cell lines to cell death | showed the effect of sensitizing the cancer cell line to cell line | – | – | – |
| CC[C@@]1(O)C(=O)OCc2c1cc1n(c2=O)Cc2cc3ccccc3nc2-1 [CPT] | showed the effect of sensitizing the cancer cell lines to cell death | showed the effect of sensitizing the cancer cell line to cell line | – | – | – |
| N.N.[Cl][Pt][Cl] [Cisplatin, cisplatin] | showed the effect of sensitizing the cancer cell lines to cell death | showed the effect of sensitizing the cancer cell line to cell line | – | – | – |
| COc1cccc2c1C(=O)c1c(O)c3c(c(O)c1C2=O)C[C@@](O)(C(=O)CO)C[C@@H]3O[C@H]1C[C@H](N)[C@H](O)[C@H](C)O1 [Doxorubicin, doxorubicin] | showed the effect of sensitizing the cancer cell lines to cell death | showed the effect of sensitizing the cancer cell line to cell line | significantly increased compared to that of the control group | killed depending on the concentration | cell viability (HT-29 cells; [10]): the cell viability decreased depending on the concentration; cell viability (HT-29 cells; [11]): the cell viability significantly increased compared to that of the control group |
| COc1cc([C@@H]2c3cc4c(cc3[C@@H](O[C@@H]3O[C@@H]5CO[C@@H](C)O[C@H]5[C@H](O)[C@H]3O)[C@H]3COC(=O)[C@H]23)OCO4)cc(OC)c1O [Etoposide, etoposide] | showed the effect of sensitizing the cancer cell lines to cell death | showed the effect of sensitizing the cancer cell line to cell line | significantly increased compared to that of the control group | killed depending on the concentration | cell viability (HT-29 cells; [10]): the cell viability decreased depending on the concentration; cell viability (HT-29 cells; [11]): the cell viability significantly increased compared to that of the control group |
| CC(=O)O[C@H]1C(=O)[C@@]2(C)[C@H]([C@H](OC(=O)c3ccccc3)[C@]3(O)C[C@H](OC(=O)[C@H](O)[C@@H](NC(=O)c4ccccc4)c4ccccc4)C(C)=C1C3(C)C)[C@]1(OC(C)=O)CO[C@@H]1C[C@@H]2O [Paclitaxel, paclitaxel] | showed the effect of sensitizing the cancer cell lines to cell death | – | significantly increased compared to that of the control group | killed depending on the concentration | – |
| O=C(O)C(Cc1c[nH]c2ccccc12)N1C(=O)c2ccccc2C1=O (stereo not shown) [RG108] | – | – | – | – | RIP3 expression [7]: RIP3 expression was induced |
